Measurements reported in ChEMBL document CHEMBL6177971, “Iterative Optimization Yields Stapled Peptides with Superior Pharmacokinetics and Potency for Renal Fibrosis Treatment” (J Med Chem, 2025).
The source made the active and inactive calls. The rule behind the calls is not given here. *1 amine or outer side, *2 acyl side, *3 side chain or, on linkers, in order; H or OH if unused. Where a SMILES comes first, the peptide text is derived from it. Bridges are numbered along the chain shown (N, C = ends). [ ]: non-standard residue; d: D form. Gly(pent-4-enyl) = C=CCCC[C@H](N)C(=O)O; Octanediyl(1,8) = C(CCCC[*:2])CCC[*:1]; S5 = C=CCCC[C@](C)(N)C(=O)O; X2 = C(CCC[*:2])CC[*:1]; X4 = C(CC[*:2])C[*:1]

Experiments:
NIH3T3 [1] = test: Inhibition of TGF-beta1-induced EMT in mouse NIH3T3 cells assessed as decrease in alpha-SMA level at 10 uM incubated for 48 hrs by Western blot analysis; format: functional, cell-based
NIH3T3 [2] = test: Inhibition of TGF-beta1-induced EMT in mouse NIH3T3 cells assessed as decrease in fibronectin level at 10 uM incubated for 48 hrs by Western blot analysis; format: functional, cell-based
NIH3T3 [3] = test: Cytotoxicity against mouse NIH3T3 cells assessed as inhibition of cell viability up to 160 uM incubated for 48 hrs by CCK8 assay; format: toxicity, cell-based; details: nih3t3, 48 h
[4] = Half life of compound; format: physicochemical
[5] = Stability in C57BL/6J mouse serum assessed as proteolysis resistance measured up to 72 hrs by HPLC analysis; format: ADME, cell-free
NIH3T3 [6] = test: Cytotoxicity against mouse NIH3T3 cells assessed as inhibition of cell viability at 10 to 40 uM incubated for 48 hrs by CCK8 assay; format: toxicity, cell-based; details: nih3t3, 48 h, dose 10-40 µM

half-life [4] | Stability [5] | Compound | inhibition (NIH3T3 [1]) | inhibition (NIH3T3 [2]) | Activity (NIH3T3 [3]) | Activity (NIH3T3 [6])
102 h | – | C[C@@H](NC(=O)[C@H](CCC(N)=O)NC(=O)[C@@H]1CCCN1C(=O)[C@@H](CC(N)=O)NC(=O)[C@H](Cc1ccccc1)NC(=O)[C@H](Cc1c[nH]cn1)NC(=O)[C@H](N)CC(=O)O)C(=O)N[C@@H](CCCNC(=N)N)C(N)=O | Active | Active | Non-toxic | –
2.01 h | Unstable | CC[C@H](C)[C@@H]1NC(=O)[C@H](CCC(N)=O)NC(=O)[C@@H]2CCCN2C(=O)[C@@H](NC(=O)[C@H](CC(N)=O)NC(=O)[C@H](Cc2c[nH]cn2)NC(=O)[C@@H](N)CC(=O)O)CSCCCCCCCCSC[C@@H](C(N)=O)NC1=O (H-DHNCPQIC-NH2; linker 4-8 via Octanediyl(1,8)) | Active | Active | Non-toxic | –
1.81 h | Unstable | C=CCCC[C@](C)(NC(=O)[C@H](Cc1c[nH]cn1)NC(=O)[C@@H](N)CC(=O)O)C(=O)N[C@H]1CSCCCCCCSC[C@@H](C(N)=O)NC(=O)[C@H]([C@@H](C)CC)NC(=O)[C@H](CCC(N)=O)NC(=O)[C@@H]2CCCN2C1=O (H-DH[S5]CPQIC-NH2; linker 4-8 via X2) | Active | Active | Non-toxic | –
9.97 h | – | CC[C@H](C)[C@@H]1NC(=O)[C@H](CCC(N)=O)NC(=O)[C@@H]2CCCN2C(=O)[C@H](CC(N)=O)NC(=O)[C@H](CC(N)=O)NC(=O)[C@H](Cc2c[nH]cn2)NC(=O)[C@H](CC(=O)O)NC(=O)[C@H](CCCNC(=N)N)NC1=O (cyclo(DHNNPQIR)) | Active | Active | Non-toxic | –
656 h | Stable | C=CCCC[C@](C)(NC(=O)[C@@H](C)NC(=O)[C@H](CCC(N)=O)NC(=O)[C@@H]1CCCN1C(=O)[C@](C)(CCCC=C)NC(=O)[C@H](CC(N)=O)NC(=O)[C@H](Cc1c[nH]cn1)NC(=O)[C@@H](CC(=O)O)NC(=O)CCCCCCCCCCC)C(N)=O | Active | Active | – | Toxic
1.48 h | Stable | C=CCCC[C@](C)(NC(=O)[C@H](Cc1c[nH]cn1)NC(=O)[C@@H](N)CC(=O)O)C(=O)N[C@@H](CS)C(=O)N1CCC[C@H]1C(=O)N[C@@H](CCC(N)=O)C(=O)N[C@H](C(=O)N[C@@H](CS)C(N)=O)[C@@H](C)CC (H-DH[S5]CPQIC-NH2) | – | – | Non-toxic | –
1.11 h | Stable | C[C@@]1(C(=O)N[C@@H](CCCNC(=N)N)C(N)=O)CCC/C=C\CCC[C@](C)(NC(=O)[C@H](Cc2cnc[nH]2)NC(=O)[C@@H](N)CC(=O)O)C(=O)N[C@@H](CC(N)=O)C(=O)N2CCC[C@H]2C(=O)N[C@@H](CCC(N)=O)C(=O)N1 (H-DH[S5]NPQ[S5]R-NH2; staple (Z) 3-7) | inactive | inactive | Non-toxic | –
0.57 h | – | H-HNNPQIRD-OH | – | – | Non-toxic | –
12.3 h | Stable | CC[C@H](C)[C@@H]1NC(=O)[C@H](CCC(N)=O)NC(=O)[C@@H]2CCCN2C(=O)[C@@](C)(NC(=O)[C@H](CC(N)=O)NC(=O)[C@H](Cc2c[nH]cn2)NC(=O)[C@@H](N)CC(=O)O)CCC/C=C/CCC[C@@](C)(C(N)=O)NC1=O (H-DHN[S5]PQI[S5]-NH2; staple (E) 4-8) | inactive | inactive | Non-toxic | –
3.82 h | Stable | CC[C@H](C)[C@H](NC(=O)[C@H](CCC(N)=O)NC(=O)[C@@H]1CCCN1C(=O)[C@H](CS)NC(=O)[C@H](CC(N)=O)NC(=O)[C@H](Cc1c[nH]cn1)NC(=O)[C@@H](N)CC(=O)O)C(=O)N[C@@H](CS)C(N)=O (H-DHNCPQIC-NH2) | – | – | Non-toxic | –

Further lines, the compound ahead of its results:

Compound | half-life [4] | Stability [5] | inhibition (NIH3T3 [1]) | inhibition (NIH3T3 [2]) | Activity (NIH3T3 [3]) | Activity (NIH3T3 [6])
C=CCCC[C@](C)(NC(=O)[C@H](Cc1c[nH]cn1)NC(=O)[C@@H](CC(=O)O)NC(=O)CCCCCCCCCCCCCCCCC)C(=O)N[C@H](CC(N)=O)C(=O)N1CCC[C@H]1C(=O)N[C@@H](CCC(N)=O)C(=O)N[C@H](C)C(=O)N[C@@H](CCCNC(=N)N)C(N)=O | – | – | Active | Active | Toxic | –
C=CCCC[C@](C)(NC(=O)[C@H](Cc1c[nH]cn1)NC(=O)[C@H](N)CC(=O)O)C(=O)N[C@H](CC(N)=O)C(=O)N1CCC[C@H]1C(=O)N[C@@H](CCC(N)=O)C(=O)N[C@H](C)C(=O)N[C@@H](CCCNC(=N)N)C(N)=O | 129 h | – | Active | Active | Non-toxic | –
C[C@@H](NC(=O)[C@H](CCC(N)=O)NC(=O)[C@@H]1CCCN1C(=O)[C@@H](CC(N)=O)NC(=O)[C@H](CC(N)=O)NC(=O)[C@H](Cc1c[nH]cn1)NC(=O)[C@H](N)CC(=O)O)C(=O)N[C@@H](CCCNC(=N)N)C(N)=O | 101 h | – | Active | Active | Non-toxic | –
C=CCCC[C@H](NC(=O)[C@H](CCC(N)=O)NC(=O)[C@@H]1CCCN1C(=O)[C@H](CC(N)=O)NC(=O)[C@](C)(CCCC=C)NC(=O)[C@H](Cc1c[nH]cn1)NC(=O)[C@@H](N)CC(=O)O)C(=O)N[C@@H](CCCNC(=N)N)C(N)=O (H-DH[S5]NPQ[Gly(pent-4-enyl)]R-NH2) | 0.9 h | Stable | Active | Active | Non-toxic | –
C[C@@H](NC(=O)[C@H](CCC(N)=O)NC(=O)[C@@H]1CCCN1C(=O)[C@@H](CC(N)=O)NC(=O)[C@H](CCCCN)NC(=O)[C@H](Cc1c[nH]cn1)NC(=O)[C@H](N)CC(=O)O)C(=O)N[C@@H](CCCNC(=N)N)C(N)=O | 272 h | – | inactive | inactive | Non-toxic | –
C=CCCC[C@](C)(NC(=O)[C@H](Cc1c[nH]cn1)NC(=O)[C@@H](CC(=O)O)NC(=O)CCCCCCCCCCC)C(=O)N[C@H]1CSCCCCCCSC[C@@H](C(N)=O)NC(=O)[C@@H](C)NC(=O)[C@H](CCC(N)=O)NC(=O)[C@@H]2CCCN2C1=O | 91.6 h | Stable | Active | Active | Toxic | –
C[C@@H](NC(=O)[C@H](CCC(N)=O)NC(=O)[C@@H]1CCCN1C(=O)[C@@H](CC(N)=O)NC(=O)[C@H](CCC(N)=O)NC(=O)[C@H](Cc1c[nH]cn1)NC(=O)[C@H](N)CC(=O)O)C(=O)N[C@@H](CCCNC(=N)N)C(N)=O | 424 h | – | Active | Active | Non-toxic | –
C=CCCC[C@](C)(NC(=O)[C@H](Cc1c[nH]cn1)NC(=O)[C@@H](CC(=O)O)NC(=O)CCCCCCCCCCCCC)C(=O)N[C@H](CC(N)=O)C(=O)N1CCC[C@H]1C(=O)N[C@@H](CCC(N)=O)C(=O)N[C@H](C)C(=O)N[C@@H](CCCNC(=N)N)C(N)=O | – | – | Active | Active | Toxic | –
C=CCCC[C@](C)(NC(=O)[C@H](Cc1c[nH]cn1)NC(=O)[C@@H](CC(=O)O)NC(=O)CCCCCCCCCCC)C(=O)N[C@H](CC(N)=O)C(=O)N1CCC[C@H]1C(=O)N[C@@H](CCC(N)=O)C(=O)N[C@H](C)C(=O)N[C@@H](CCCNC(=N)N)C(N)=O | – | – | Active | Active | Toxic | –
C=CCCC[C@](C)(NC(=O)[C@H](Cc1c[nH]cn1)NC(=O)[C@@H](N)CC(=O)O)C(=O)N[C@H]1CSCCCCSC[C@@H](C(N)=O)NC(=O)[C@H]([C@@H](C)CC)NC(=O)[C@H](CCC(N)=O)NC(=O)[C@@H]2CCCN2C1=O (H-DH[S5]CPQIC-NH2; linker 4-8 via X4) | 54.1 h | – | Active | Active | Non-toxic | –
C=CCCC[C@](C)(NC(=O)[C@H](CCC(N)=O)NC(=O)[C@@H]1CCCN1C(=O)[C@@H](CC(N)=O)NC(=O)[C@](C)(CCCC=C)NC(=O)[C@H](Cc1c[nH]cn1)NC(=O)[C@@H](CC(=O)O)NC(=O)CCCCCCCCCCC)C(=O)N[C@@H](CCCNC(=N)N)C(N)=O | 208 h | Stable | Active | Active | – | Toxic
C=CCCC[C@](C)(NC(=O)[C@H](Cc1c[nH]cn1)NC(=O)[C@@H](CC(=O)O)NC(=O)CCCCCCCCCCCCCCC)C(=O)N[C@H](CC(N)=O)C(=O)N1CCC[C@H]1C(=O)N[C@@H](CCC(N)=O)C(=O)N[C@H](C)C(=O)N[C@@H](CCCNC(=N)N)C(N)=O | – | – | Active | Active | Toxic | –
CC[C@H](C)[C@H](NC(=O)[C@H](Cc1c[nH]cn1)NC(=O)[C@H](N)CC(=O)O)C(=O)N[C@H](CC(N)=O)C(=O)N1CCC[C@H]1C(=O)N[C@@H](CCC(N)=O)C(=O)N[C@H](C)C(=O)N[C@@H](CCCNC(=N)N)C(N)=O | 125 h | – | Active | Active | Non-toxic | –
C=CCCC[C@](C)(NC(=O)[C@@H](NC(=O)[C@H](CCC(N)=O)NC(=O)[C@@H]1CCCN1C(=O)[C@](C)(CCCC=C)NC(=O)[C@H](CC(N)=O)NC(=O)[C@H](Cc1c[nH]cn1)NC(=O)[C@@H](N)CC(=O)O)[C@@H](C)CC)C(N)=O (H-DHN[S5]PQI[S5]-NH2) | 5.67 h | Stable | Active | Active | Non-toxic | –
